Test results as given in patent US20260224571A1, “AZACYCLOALKANE COMPOUND AND PHARMACEUTICAL COMPOSITION, AND USE THEREOF” (Prime Gene Therapeutics Co., Ltd., priority 2023, published 2026).

Tests used:
ROCK2 = ROCK2 (Homo sapiens, UniProt O75116); assay: ROCK2 kinase enzymatic activity (HTRF, STK2 substrate); format: biochemical; settings: ROCK2 kinase reacted at room temperature for 30 minutes
Excerpt: (§1) The kinase activity data was expressed by comparing the kinase activity of the test compound and that of the blank group (containing only DMSO), and the IC50 value was obtained by curve fitting using Prism software (GraphPad7.0).

ROCK1 = ROCK1 (Homo sapiens, UniProt Q13464); assay: ROCK1 kinase enzymatic activity (HTRF, STK2 substrate); format: biochemical; settings: ROCK1 kinase reacted at room temperature for 20 minutes
Chain of ROCK1 (Q13464 whole entry): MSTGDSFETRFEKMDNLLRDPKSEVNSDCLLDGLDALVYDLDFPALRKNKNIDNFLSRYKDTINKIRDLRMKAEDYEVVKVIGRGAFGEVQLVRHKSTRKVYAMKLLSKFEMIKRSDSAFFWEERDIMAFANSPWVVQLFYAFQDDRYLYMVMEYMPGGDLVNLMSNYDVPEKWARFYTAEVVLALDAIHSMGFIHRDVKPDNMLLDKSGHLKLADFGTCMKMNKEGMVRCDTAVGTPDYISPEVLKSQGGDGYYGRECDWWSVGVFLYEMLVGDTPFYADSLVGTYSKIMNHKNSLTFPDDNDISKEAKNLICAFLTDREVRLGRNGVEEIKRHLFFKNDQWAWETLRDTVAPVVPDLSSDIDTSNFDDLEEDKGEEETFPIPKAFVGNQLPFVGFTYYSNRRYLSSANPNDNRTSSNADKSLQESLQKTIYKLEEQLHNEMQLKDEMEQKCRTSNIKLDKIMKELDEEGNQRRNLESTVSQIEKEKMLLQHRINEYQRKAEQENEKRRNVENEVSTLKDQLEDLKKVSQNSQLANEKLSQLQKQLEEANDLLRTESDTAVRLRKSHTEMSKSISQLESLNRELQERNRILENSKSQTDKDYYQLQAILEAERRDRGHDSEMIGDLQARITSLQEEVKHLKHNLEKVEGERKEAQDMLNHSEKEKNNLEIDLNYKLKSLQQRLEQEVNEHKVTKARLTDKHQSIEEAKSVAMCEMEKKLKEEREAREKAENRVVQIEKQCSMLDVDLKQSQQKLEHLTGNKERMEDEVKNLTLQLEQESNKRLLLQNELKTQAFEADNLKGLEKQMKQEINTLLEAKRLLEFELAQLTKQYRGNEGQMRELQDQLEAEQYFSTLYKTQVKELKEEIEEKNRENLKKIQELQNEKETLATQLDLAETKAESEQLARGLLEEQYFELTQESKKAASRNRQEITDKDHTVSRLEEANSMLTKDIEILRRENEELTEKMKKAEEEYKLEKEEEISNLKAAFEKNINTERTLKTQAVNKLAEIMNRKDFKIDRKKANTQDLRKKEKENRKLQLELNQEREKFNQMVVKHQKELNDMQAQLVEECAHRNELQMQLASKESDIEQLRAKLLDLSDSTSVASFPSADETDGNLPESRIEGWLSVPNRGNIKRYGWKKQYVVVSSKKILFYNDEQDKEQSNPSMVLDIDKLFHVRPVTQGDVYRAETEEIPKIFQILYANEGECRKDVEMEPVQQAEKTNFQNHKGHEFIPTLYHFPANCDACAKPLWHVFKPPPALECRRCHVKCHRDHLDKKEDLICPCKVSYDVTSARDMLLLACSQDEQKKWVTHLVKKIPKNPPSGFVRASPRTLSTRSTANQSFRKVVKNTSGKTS
Excerpt: as §1

Chain of ROCK2 (O75116 whole entry): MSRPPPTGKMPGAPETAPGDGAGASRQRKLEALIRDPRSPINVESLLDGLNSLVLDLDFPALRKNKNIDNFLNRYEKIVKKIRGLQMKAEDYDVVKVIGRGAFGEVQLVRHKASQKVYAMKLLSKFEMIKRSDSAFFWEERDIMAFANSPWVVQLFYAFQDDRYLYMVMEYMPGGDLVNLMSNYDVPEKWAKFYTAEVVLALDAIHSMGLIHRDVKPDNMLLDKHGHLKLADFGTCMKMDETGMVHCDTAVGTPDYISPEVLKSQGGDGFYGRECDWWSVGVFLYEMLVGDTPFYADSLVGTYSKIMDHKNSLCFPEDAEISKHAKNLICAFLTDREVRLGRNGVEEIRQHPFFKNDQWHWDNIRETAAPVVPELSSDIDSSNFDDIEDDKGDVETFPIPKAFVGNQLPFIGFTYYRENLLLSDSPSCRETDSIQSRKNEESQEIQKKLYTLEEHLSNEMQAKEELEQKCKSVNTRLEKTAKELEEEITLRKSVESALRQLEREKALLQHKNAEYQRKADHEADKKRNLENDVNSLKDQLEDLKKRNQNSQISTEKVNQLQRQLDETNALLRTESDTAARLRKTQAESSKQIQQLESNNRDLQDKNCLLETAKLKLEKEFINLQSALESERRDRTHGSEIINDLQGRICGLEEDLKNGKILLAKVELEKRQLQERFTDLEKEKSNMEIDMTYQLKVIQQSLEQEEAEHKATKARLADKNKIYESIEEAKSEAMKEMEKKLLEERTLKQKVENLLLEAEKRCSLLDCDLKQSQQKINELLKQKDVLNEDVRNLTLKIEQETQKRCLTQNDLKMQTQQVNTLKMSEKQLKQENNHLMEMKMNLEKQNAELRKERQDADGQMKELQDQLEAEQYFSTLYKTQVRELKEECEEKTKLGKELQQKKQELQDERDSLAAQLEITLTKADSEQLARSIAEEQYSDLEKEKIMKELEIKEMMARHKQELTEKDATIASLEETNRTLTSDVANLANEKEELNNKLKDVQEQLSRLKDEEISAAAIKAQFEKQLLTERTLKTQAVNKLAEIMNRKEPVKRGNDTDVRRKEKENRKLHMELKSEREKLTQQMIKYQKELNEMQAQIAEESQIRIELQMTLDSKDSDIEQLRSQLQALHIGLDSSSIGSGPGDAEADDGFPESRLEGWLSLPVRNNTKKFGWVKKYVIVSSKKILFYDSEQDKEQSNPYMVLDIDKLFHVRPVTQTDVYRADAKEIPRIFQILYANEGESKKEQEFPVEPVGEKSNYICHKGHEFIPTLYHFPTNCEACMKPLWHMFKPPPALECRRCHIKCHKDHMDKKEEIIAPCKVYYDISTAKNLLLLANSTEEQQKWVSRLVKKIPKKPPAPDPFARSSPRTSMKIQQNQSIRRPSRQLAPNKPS

Row | SMILES | IC50 (ROCK2) [nM] | IC50 (ROCK1) [nM]
1 | COCCNS(=O)(=O)N1CC(CC#N)(n2cc(-c3ncnc4[nH]ccc34)c(N)n2)C1 [Example 48, 3-(3-amino-4-(7H-pyrrolo[2,3-d]pyrimidin-4-yl)-1H-pyrazol-1-yl)-3-(cyanomethyl)-N-(2-methoxyethyl)azetidine-1-sulfonamide] | < 10 | < 50
2 | CNS(=O)(=O)N1CC(CC#N)(n2cc(-c3ncnc4[nH]ccc34)c(N)n2)C1 [Example 49, 3-(3-amino-4-(7H-pyrrolo[2,3-d]pyrimidin-4-yl)-1H-pyrazol-1-yl)-3-(cyanomethyl)-N-methylazetidine-1-sulfonamide] | < 10 | < 10
3 | CN(C)S(=O)(=O)N1CC(CC#N)(n2cc(-c3ncnc4[nH]ccc34)c(N)n2)C1 [Example 51, 3-(3-amino-4-(7H-pyrrolo[2,3-d]pyrimidin-4-yl)-1H-pyrazol-1-yl)-3-(cyanomethyl)-N,N-dimethylazetidine-1-sulfonamide] | < 10 | < 10
4 | CN(C)CCNS(=O)(=O)N1CC(CC#N)(n2cc(-c3ncnc4[nH]ccc34)c(N)n2)C1 [Example 52, 3-(3-amino-4-(7H-pyrrolo[2,3-d]pyrimidin-4-yl)-1H-pyrazol-1-yl)-3-(cyanomethyl)-N-(2-(dimethylamino)ethyl)azetidine-1-sulfonamide] | < 10 | < 10
5 | COC(=O)CNS(=O)(=O)N1CC(CC#N)(n2cc(-c3ncnc4[nH]ccc34)c(N)n2)C1 [Example 53, methyl (3-(3-amino-4-(7H-pyrrolo[2,3-d]pyrimidin-4-yl)-1H-pyrazol-1-yl)-3-(cyanomethyl)azetidine-1-ylsulfonyl)glycinate] | < 10 | < 10
6 | N#CCC1(n2cc(-c3ncnc4[nH]ccc34)c(N)n2)CN(S(=O)(=O)NCC(=O)O)C1 [Example 54] | < 50 | < 50
7 | CCS(=O)(=O)N1CC(CC#N)(n2cc(-c3ncnc4[nH]ccc34)c(O)n2)C1 [Example 56, 2-(1-(ethylsulfonyl)-3-(3-hydroxy-4-(7H-pyrrolo[2,3-d]pyrimidin-4-yl)-1H-pyrazol-1-yl)azetidine-3-yl)acetonitrile] | > 100 | < 50
8 | CC(C)S(=O)(=O)N1CC(CC#N)(n2cc(-c3ncnc4[nH]ccc34)c(O)n2)C1 [Example 57, 2-(3-(3-hydroxy-4-(7H-pyrrolo[2,3-d]pyrimidin-4-yl)-1H-pyrazol-1-yl)-1-(isopropylsulfonyl)azetidine-3-yl)acetonitrile] | > 100 | < 50
9 | N#CCC1(n2cc(-c3ncnc4[nH]ccc34)c(O)n2)CN(S(=O)(=O)C2CC2)C1 [Example 58, 2-(1-(cyclopropylsulfonyl)-3-(3-hydroxy-4-(7H-pyrrolo[2,3-d]pyrimidin-4-yl)-1H-pyrazol-1-yl)azetidine-3-yl)acetonitrile] | > 100 | < 50
10 | COc1nn(C2(CC#N)CN(S(=O)(=O)C(C)C)C2)cc1-c1ncnc2[nH]ccc12 [Example 59, 2-(1-(isopropylsulfonyl)-3-(3-methoxy-4-(7H-pyrrolo[2,3-d]pyrimidin-4-yl)-1H-pyrazol-1-yl)azetidine-3-yl)acetonitrile] | > 100 | < 50
11 | N#CCC1(n2cc(-c3ncnc4[nH]ccc34)c(C(N)=O)n2)CN(S(=O)(=O)CC(F)(F)F)C1 [Example 60, 1-(3-(cyanomethyl)-1-((2,2,2-trifluoroethyl)sulfonyl)azetidine-3-yl)-4-(7H-pyrrolo[2,3-d]pyrimidin-4-yl)-1H-pyrazole-3-formamide] | > 100 | > 100
12 | CCS(=O)(=O)N1CC(CC#N)(n2cc(-c3ncnc4[nH]ccc34)c(C(=O)NC)n2)C1 [Example 63, 1-(3-(cyanomethyl)-1-(ethylsulfonyl)azetidine-3-yl)-N-methyl-4-(7H-pyrrolo[2,3-d]pyrimidin-4-yl)-1H-pyrazol-3-formamide] | > 100 | > 100
13 | CNC(=O)c1nn(C2(CC#N)CN(S(=O)(=O)C(C)C)C2)cc1-c1ncnc2[nH]ccc12 [Example 64, 1-(3-(cyanomethyl)-1-(isopropylsulfonyl)azetidine-3-yl)-N-methyl-4-(7H-pyrrolo[2,3-d]pyrimidin-4-yl)-1H-pyrazol-3-formamide] | > 100 | > 100
14 | CNC(=O)c1nn(C2(CC#N)CN(S(=O)(=O)C3CC3)C2)cc1-c1ncnc2[nH]ccc12 [Example 65, 1-(3-(cyanomethyl)-1-(cyclopropylsulfonyl)azetidine-3-yl)-N-methyl-4-(7H-pyrrolo[2,3-d]pyrimidin-4-yl)-1H-pyrazol-3-formamide] | > 100 | > 100
15 | CCS(=O)(=O)N1CC(CC#N)(n2cc(-c3ncnc4[nH]ccc34)c(C(N)=O)n2)C1 [Example 66, 1-(3-(cyanomethyl)-1-(ethylsulfonyl)azetidine-3-yl)-4-(7H-pyrrolo[2,3-d]pyrimidin-4-yl)-1H-pyrazol-3-formamide] | > 100 | > 100
16 | N#CCC1(n2cc(-c3ncnc4[nH]ccc34)c(C(N)=O)n2)CN(S(=O)(=O)C2CC2)C1 [Example 67, 1-(3-(cyanomethyl)-1-(cyclopropylsulfonyl)azetidine-3-yl)-4-(7H-pyrrolo[2,3-d]pyrimidin-4-yl)-1H-pyrazol-3-formamide] | > 100 | > 100
17 | CC(C)S(=O)(=O)N1CC(CC#N)(n2cc(-c3ncnc4[nH]ccc34)c(C(N)=O)n2)C1 [Example 68, 1-(3-(cyanomethyl)-1-(isopropylsulfonyl)azetidine-3-yl)-4-(7H-pyrrolo[2,3-d]pyrimidin-4-yl)-1H-pyrazol-3-formamide] | > 100 | > 100
18 | CS(=O)(=O)N1CC(CC#N)(n2cc(-c3ncnc(NCCO)n3)c(N)n2)C1 [Example 70, 2-(3-(3-amino-4-(4-((2-hydroxyethyl)amino)-1,3,5-triazin-2-yl)-1H-pyrazol-1-yl)-1-(methylsulfonyl)azetidine-3-yl)acetonitrile] | > 100 | > 100
19 | CN1CCC(Nc2ncnc(-c3cn(C4(CC#N)CN(S(C)(=O)=O)C4)nc3N)n2)CC1 [Example 71, 2-(3-(3-amino-4-(4-((1-methylpiperidin-4-yl)amino)-1,3,5-triazin-2-yl)-1H-pyrazol-1-yl)-1-(methylsulfonyl)azetidine-3-yl)acetonitrile] | > 100 | > 100
20 | CS(=O)(=O)N1CC(CC#N)(n2cc(-c3ncnc(NC4CCOCC4)n3)c(N)n2)C1 [Example 72, 2-(3-(3-amino-4-(4-((tetrahydro-2H-pyran-4-yl)amino)-1,3,5-triazin-2-yl)-1H-pyrazol-1-yl)-1-(methylsulfonyl)azetidine-3-yl)acetonitrile] | > 100 | > 100
21 | CS(=O)(=O)N1CC(CC#N)(n2cc(-c3ncnc(NCC4CCOCC4)n3)c(N)n2)C1 [Example 73] | > 100 | > 100
22 | CS(=O)(=O)N1CC(CC#N)(n2cc(-c3cc(NCCO)ncn3)c(N)n2)C1 [Example 74, 2-(3-(3-amino-4-(6-((2-hydroxyethyl)amino)pyrimidin-4-yl)-1H-pyrazol-1-yl)-1-(methylsulfonyl)azetidine-3-yl)acetonitrile] | > 100 | > 100
